According to patent US4709032A, “Isoquinolinesulfonamide derivatives” (Asahi Kasei Kogyo Kabushiki Kaisha, priority 1982, dated 1987):

Test system: mesenteric artery
Assay: Relaxation of rabbit mesenteric artery contracted with KCl (isolated helical strip)
Type: cell-based
Conditions: Oryctolagus cuniculus; concentration for 50% relaxation (complete relaxation = 100%); KCl 15-20 mM contraction; read-out: Relaxation of Mesenteric Artery ED50
Procedure: When, for example, N-(2-guanidinoethyl)-5-isoquinolinesulfonamide, i.e., compound (2) was added and a complete relaxation was designated 100%, the concentration which could bring about a relaxation of 50%, i.e., ED50 was 1 μM.
After a home bred rabbit of a Japanese species weighing about 3 Kg was subjected to bloodletting, resulting in death and then to abdominal incision, the mesenteric artery was taken out, cut into helicoids of 2 mm×25 mm and suspended in a 20 ml organ bath filled with a Krebs-Henseleit solution into which a mixed gas of 95% by volume of O2 and 5% by volume of CO2 was introduced and one end of the artery was connected with an isometric transducer. When a load of 1.5 g was applied to the artery, the contraction and the relaxation of the artery were recorded as a weight on the transducer (a product of Nippon Koden K.K., Japan, "FD Pickup TB-912T"). The relaxation of the mesenteric artery was observed by adding the isoquinolinesulfonamide derivatives and their pharmaceutically acceptable acid addition salts of this invention to the mesenteric artery at the condition of about one half of the maximum contraction with KCl concentration of 15-20 mM. When the complete relaxation of the mesenteric artery was designated 100%, the concentration of the isoquinolinesulfonamide derivatives and their pharmaceutically acceptable acid addition salts which brought about a relaxation of 50% is shown in Table 26.

Row | Compound | EC50
1 | N=C(N)N1CCCN(S(=O)(=O)c2cccc3cnccc23)CC1 [Compound 45, 4-Amidino-1-(5-isoquinolinesulfonyl)homopiperazine] | 2 µM
2 | CCN=C(N)NCCNS(=O)(=O)c1cccc2cnccc12 [Compound 55, N-[2,(3-Ethylguanidino)ethyl]-5-isoquinolinesulfonamide] | 5 µM
3 | N=C(N)NCCCC(CNS(=O)(=O)c1cccc2cnccc12)Cc1ccccc1 (stereo not drawn) [Compound 39, N-(5-Guanidino-2-benzylpentyl)-5-isoquinolinesulfonamide] | 13 µM
4 | N=C(N)NCCCCCCNS(=O)(=O)c1cccc2cnccc12 [Compound 6, N-(6-Guanidinohexyl)-5-isoquinolinesulfonamide] | 4 µM
5 | N=C(N)NCCCCCCCCNS(=O)(=O)c1cccc2cnccc12 [Compound 7, N-(8-Guanidinooctyl)-5-isoquinolinesulfonamide] | 10 µM
6 | N=C(N)NCC(CCNS(=O)(=O)c1cccc2cnccc12)c1ccccc1 (stereo not drawn) [Compound 37, N-(4-Guanidino-3-phenylbutyl)-5-isoquinolinesulfonamide] | 10 µM
7 | CC1CN(S(=O)(=O)c2cccc3cnccc23)C(C)CN1C(=N)N (stereo not drawn) [Compound 49, 4-Amidino-2,5-dimethyl-1-(5-isoquinolinesulfonyl)piperazine] | 1 µM
8 | N=C(N)NC(CCNS(=O)(=O)c1cccc2cnccc12)Cc1ccccc1 (stereo not drawn) [Compound 35, N-(3-Guanidino-4-phenylbutyl)-5-isoquinolinesulfonamide] | 5 µM
9 | N=C(N)NCCCCNS(=O)(=O)c1cccc2cnccc12 [Compound 4, N-(4-Guanidinobutyl)-5-isoquinolinesulfonamide] | 2 µM
10 | N=C(N)NCCCNS(=O)(=O)c1cccc2cnccc12 [Compound 3, N-(3-Guanidinopropyl)-5-isoquinolinesulfonamide] | 2 µM
11 | N=C(N)NCC(Cc1ccccc1)NS(=O)(=O)c1cccc2cnccc12 (stereo not drawn) [Compound 24, N-(2-Guanidino-1-benzylethyl)-5-isoquinolinesulfonamide] | 10 µM
12 | CCN=C(NCC)NCCNS(=O)(=O)c1cccc2cnccc12 [Compound 54, N-[2-(2,3-Diethylguanidino)ethyl]-5-isoquinolinesulfonamide] | 12 µM
13 | N=C(N)NCC(CNS(=O)(=O)c1cccc2cnccc12)Cc1ccccc1 (stereo not drawn) [Compound 34, N-(3-Guanidino-2-benzylpropyl)-5-Isoquinolinesulfonamide] | 2 µM
14 | CCC(CNS(=O)(=O)c1cccc2cnccc12)NC(=N)N (stereo not drawn) [Compound 17, N-(2-Guanidinobutyl)-5-isoquinolinesulfonamide] | 10 µM
15 | O=S(=O)(NCCNC1=NCCCN1)c1cccc2cnccc12 [Compound 51, 2-[2-(5-Isoquinolinesulfonamido)ethylamino]-1,4,5,6-tetrahydropyrimidine] | 25 µM
16 | N=C(N)NCC(NS(=O)(=O)c1cccc2cnccc12)c1ccccc1 (stereo not drawn) [Compound 23, N-(2-Guanidino-1-phenylethyl)-5-isoquinolinesulfonamide] | 8 µM
17 | CCCCC(CNC(=N)N)NS(=O)(=O)c1cccc2cnccc12 (stereo not drawn) [Compound 13, N-[(1-Guanidinomethyl)pentyl]-5-isoquinolinesulfonamide] | 13 µM
18 | CNC(=N)NCCNS(=O)(=O)c1cccc2cnccc12 [Compound 52, N-[2-(3-Methylguanidino)ethyl]-5-isoquinolinesulfonamide] | 7 µM
19 | CC(CNC(=N)N)NS(=O)(=O)c1cccc2cnccc12 (stereo not drawn) [Compound 9, N-[(2-Guanidino-1-methyl)ethyl]-5-isoquinolinesulfonamide] | 3 µM
20 | N=C(N)NCCCCCCCCCCNS(=O)(=O)c1cccc2cnccc12 [Compound 8, N-(10-Guanidinodecyl)-5-isoquinolinesulfonamide] | 15 µM
21 | CC(NC(=N)N)C(C)NS(=O)(=O)c1cccc2cnccc12 (stereo not drawn) [Compound 41, N-(2-Guanidino-1-methylpropyl)-5-isoquinolinesulfonamide] | 8 µM
